Results: ChEMBL document CHEMBL4402527, “Recent advances in the development of cyclin-dependent kinase 7 inhibitors” (Eur J Med Chem, 2019)

What was measured:
[1] = molecular target: T1, Cyclin-dependent kinase 2 (Homo sapiens, UniProt P24941)
[2] = molecular target: T2, Cyclin-dependent kinase 9 (Homo sapiens, UniProt P50750)
[3] = molecular target: T3, Cyclin-dependent kinase 7 (Homo sapiens, UniProt P50613); assay: Inhibition of CDK7 (unknown origin)
[4] = test system: KOPTK1; assay: Cytotoxicity against human KOPTK1 cells assessed as reduction in cell viability; format: functional, cell-based
[5] = test system: KOPTK1; assay: Anti-tumor activity against human KOPTK1 cells xenografted in invivo animal model assessed as reduction in tumor growth at 10 mg/kg, ip relative to control; format: functional; conditions: read-out: TGI
[6] = molecular target: T4, Cyclin-dependent kinase 4 (Homo sapiens, UniProt P11802); assay: Inhibition of CDK4 (unknown origin) by luciferase reporter gene assay
T4 sequence (P11802 whole entry): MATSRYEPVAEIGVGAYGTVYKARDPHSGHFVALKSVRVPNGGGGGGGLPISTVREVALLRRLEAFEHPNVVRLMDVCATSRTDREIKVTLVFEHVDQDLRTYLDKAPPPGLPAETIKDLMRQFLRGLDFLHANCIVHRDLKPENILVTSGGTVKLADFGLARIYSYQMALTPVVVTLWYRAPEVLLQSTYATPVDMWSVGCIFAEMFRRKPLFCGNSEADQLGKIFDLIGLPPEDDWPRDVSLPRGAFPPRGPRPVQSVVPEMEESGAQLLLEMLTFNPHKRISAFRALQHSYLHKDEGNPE

[7] = test system: MDA-MB-468; assay: Cytotoxicity against human MDA-MB-468 cells assessed as reduction in cell viability; format: functional, cell-based
[8] = test system: MDA-MB-231; assay: Cytotoxicity against human MDA-MB-231 cells assessed as reduction in cell viability; format: functional, cell-based
[9] = molecular target: T5, Cyclin-dependent kinase 5 (Homo sapiens, UniProt Q00535); assay: Inhibition of CDK5 (unknown origin) by luciferase reporter gene assay
T5 sequence (Q00535 whole entry): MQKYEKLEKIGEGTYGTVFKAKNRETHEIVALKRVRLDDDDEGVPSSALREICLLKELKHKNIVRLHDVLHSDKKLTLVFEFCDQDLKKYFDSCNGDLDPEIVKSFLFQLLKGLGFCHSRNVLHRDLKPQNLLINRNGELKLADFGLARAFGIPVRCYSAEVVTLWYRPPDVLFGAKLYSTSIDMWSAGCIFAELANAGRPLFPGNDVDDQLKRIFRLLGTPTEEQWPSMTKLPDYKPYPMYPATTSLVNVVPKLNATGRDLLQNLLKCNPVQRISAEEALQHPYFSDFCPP

[10] = molecular target: T6, Cyclin-dependent kinase 1 (Homo sapiens, UniProt P06493); assay: Inhibition of CDK1 (unknown origin) by luciferase reporter gene assay
T6 sequence (P06493 whole entry): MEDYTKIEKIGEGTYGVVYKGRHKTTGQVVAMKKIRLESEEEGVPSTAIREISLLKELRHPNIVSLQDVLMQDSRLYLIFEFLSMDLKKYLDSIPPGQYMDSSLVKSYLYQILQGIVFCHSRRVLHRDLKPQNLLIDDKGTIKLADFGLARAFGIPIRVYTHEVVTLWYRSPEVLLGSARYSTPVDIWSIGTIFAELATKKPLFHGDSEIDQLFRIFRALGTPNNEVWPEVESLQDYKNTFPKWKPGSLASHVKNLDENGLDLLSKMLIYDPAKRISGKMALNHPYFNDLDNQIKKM

[11] = molecular target: T7, Cyclin-dependent kinase 6 (Homo sapiens, UniProt Q00534); assay: Inhibition of CDK6 (unknown origin) by luciferase reporter gene assay
T7 sequence (Q00534 whole entry): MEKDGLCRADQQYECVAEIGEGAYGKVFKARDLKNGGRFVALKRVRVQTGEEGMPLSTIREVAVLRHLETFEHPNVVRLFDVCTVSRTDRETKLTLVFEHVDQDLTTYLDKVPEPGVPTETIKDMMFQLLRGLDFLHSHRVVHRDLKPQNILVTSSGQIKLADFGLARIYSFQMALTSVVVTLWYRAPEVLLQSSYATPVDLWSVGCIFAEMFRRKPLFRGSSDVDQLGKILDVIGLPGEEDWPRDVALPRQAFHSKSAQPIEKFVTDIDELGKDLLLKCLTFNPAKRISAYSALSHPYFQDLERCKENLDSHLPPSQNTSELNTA

[12] = molecular target: T6, Cyclin-dependent kinase 1
[13] = molecular target: T7, Cyclin-dependent kinase 6; assay: Inhibition of CDK6 (unknown origin)
[14] = molecular target: T4, Cyclin-dependent kinase 4; assay: Inhibition of CDK4 (unknown origin)
[15] = test system: Jurkat; assay: Cytotoxicity against human Jurkat cells assessed as reduction in cell viability; format: functional, cell-based
[16] = molecular target: CDK7/Cyclin H/MNAT1 (Homo sapiens, UniProt P50613); assay: Inhibition of CDK7/CycH/MAT1 (unknown origin) by luciferase reporter gene assay; format: protein-complex assay
Chain of CDK7/Cyclin H/MNAT1 (P51946 whole entry): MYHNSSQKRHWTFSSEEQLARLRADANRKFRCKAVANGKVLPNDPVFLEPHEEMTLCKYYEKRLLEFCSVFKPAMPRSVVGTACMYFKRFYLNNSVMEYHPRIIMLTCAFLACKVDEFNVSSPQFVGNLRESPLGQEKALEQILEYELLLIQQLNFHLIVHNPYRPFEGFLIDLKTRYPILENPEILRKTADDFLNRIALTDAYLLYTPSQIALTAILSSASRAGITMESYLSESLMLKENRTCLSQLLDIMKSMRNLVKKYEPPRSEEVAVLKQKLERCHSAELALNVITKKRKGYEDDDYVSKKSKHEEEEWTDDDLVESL
Chain of CDK7/Cyclin H/MNAT1 (P50613 whole entry): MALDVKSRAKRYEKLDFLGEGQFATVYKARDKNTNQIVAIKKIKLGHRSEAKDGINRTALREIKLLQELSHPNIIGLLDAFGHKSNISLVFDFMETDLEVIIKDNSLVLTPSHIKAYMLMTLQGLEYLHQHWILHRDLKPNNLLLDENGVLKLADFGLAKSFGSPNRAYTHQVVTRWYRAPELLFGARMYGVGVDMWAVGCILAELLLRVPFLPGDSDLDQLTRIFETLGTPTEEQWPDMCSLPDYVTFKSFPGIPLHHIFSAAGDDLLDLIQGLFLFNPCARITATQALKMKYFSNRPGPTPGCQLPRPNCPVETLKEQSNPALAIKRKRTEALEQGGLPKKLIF
Chain of CDK7/Cyclin H/MNAT1 (P51948 whole entry, further chain): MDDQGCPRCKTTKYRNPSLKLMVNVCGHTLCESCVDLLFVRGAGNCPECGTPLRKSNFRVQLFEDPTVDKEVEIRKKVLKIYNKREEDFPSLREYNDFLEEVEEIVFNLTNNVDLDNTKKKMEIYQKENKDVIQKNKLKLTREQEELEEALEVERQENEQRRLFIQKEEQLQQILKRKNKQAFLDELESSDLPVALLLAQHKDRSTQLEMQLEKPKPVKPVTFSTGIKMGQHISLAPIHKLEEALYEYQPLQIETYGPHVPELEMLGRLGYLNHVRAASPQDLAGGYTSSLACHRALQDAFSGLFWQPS

[17] = molecular target: Cyclin-dependent kinase 2/cyclin E1 (Homo sapiens, UniProt P24941); assay: Inhibition of CDK2/cycE1 (unknown origin) by luciferase reporter gene assay; format: protein-complex assay
[18] = molecular target: T2, Cyclin-dependent kinase 9; assay: Inhibition of CDK9 (unknown origin) after 4 hrs
[19] = molecular target: T1, Cyclin-dependent kinase 2; assay: Inhibition of CDK2 (unknown origin) after 4 hrs
[20] = molecular target: T3, Cyclin-dependent kinase 7; assay: Inhibition of CDK7 (unknown origin) after 4 hrs
[21] = molecular target: T5, Cyclin-dependent kinase 5
[22] = test system: MGC-803; assay: Cytotoxicity against human MGC803 cells assessed as reduction in cell viability; format: functional, cell-based
[23] = test system: AGS; assay: Cytotoxicity against human AGS cells assessed as reduction in cell viability; format: functional, cell-based
[24] = test system: BGC-823; assay: Anti-tumor activity against human BGC823 cells xenografted in invivo animal model assessed as reduction in tumor growth at 10 mg/kg, ip relative to control; format: functional; conditions: BGC-823, ip, read-out: TGI

T2 sequence (P50750 whole entry): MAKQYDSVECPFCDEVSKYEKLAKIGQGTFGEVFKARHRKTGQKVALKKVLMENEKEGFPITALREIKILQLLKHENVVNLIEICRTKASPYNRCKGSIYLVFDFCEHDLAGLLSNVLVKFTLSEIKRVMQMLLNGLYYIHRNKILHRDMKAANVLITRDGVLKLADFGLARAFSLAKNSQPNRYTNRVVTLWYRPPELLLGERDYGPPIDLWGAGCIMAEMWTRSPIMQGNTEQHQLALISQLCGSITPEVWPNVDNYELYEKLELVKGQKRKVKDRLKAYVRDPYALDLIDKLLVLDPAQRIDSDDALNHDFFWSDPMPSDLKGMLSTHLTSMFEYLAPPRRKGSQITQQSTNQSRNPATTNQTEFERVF
T3 sequence (P50613 whole entry): as the sequence (P50613 whole entry) above

Structure (SMILES): Clc1cnc(N[C@@H]2CCCNC2)nc1-c1c[nH]c2ccccc12
- IC50 [1]: > 200 nM
- IC50 [2]: > 200 nM
- IC50 [3]: 20 to 200 nM

Structure (SMILES): CN(C)C/C=C/C(=O)Nc1ccc(C(=O)Nc2cccc(Nc3ncc(Cl)c(-c4c[nH]c5ccccc45)n3)c2)cc1
- IC50 [4]: 1 nM
- inhibition in vivo at 10 mg/kg [5]: 10%

Structure (SMILES): CN(C)CCCC(=O)Nc1ccc(C(=O)Nc2cccc(Nc3ncc(Cl)c(-c4c[nH]c5ccccc45)n3)c2)cc1
- IC50 [3]: 194 nM

Structure (SMILES): CC(C)c1cnn2c(NCc3cccc4c3cnn4C)nc(OC3CCCNC3)nc12 (stereo unspecified)
- IC50 [1]: < 50 nM
- IC50 [2]: < 50 nM
- IC50 [3]: < 5 nM

Structure (SMILES): CC(C)c1cnn2c(NCc3ccccc3)cc(NC[C@@H]3CCNC[C@H]3O)nc12
- IC50 [6]: 42000 nM
- IC50 [7]: 1500 nM
- IC50 [8]: 1300 nM
- IC50 [9]: 9000 nM
- IC50 [10]: 1520 nM
- IC50 [11]: 32100 nM

Structure (SMILES): CC(C)c1cnn2c(NCc3ccccc3N(C)C)nc(OC3CCN(C)CC3)nc12
- IC50 [12]: > 10000 nM
- IC50 [13]: > 10000 nM
- IC50 [14]: > 10000 nM
- IC50 [1]: 3900 nM
- IC50 [2]: 7450 nM
- IC50 [3]: < 5 nM

Structure (SMILES): C=CC(=O)Nc1ccc(C(=O)Nc2cccc(Nc3n[nH]c4c3CN(C(=O)N[C@H](CN(C)C)c3ccccc3)C4(C)C)c2)cc1
- IC50 [15]: 2 nM
- IC50 [3]: 20 nM

Structure (SMILES): CC(C)c1cnn2c(NCc3ccccc3)cc(NCC3CCNCC3)nc12
- IC50 [16]: 310 nM

Structure (SMILES): Clc1cnc(N[C@H]2CCCNC2)nc1-c1c[nH]c2ccccc12
- IC50 [1]: > 200 nM
- IC50 [2]: > 200 nM
- IC50 [3]: < 20 nM

Structure (SMILES): CC(C)c1cnn2c(NCc3ccccc3)cc(NC[C@]3(CO)CCNC3)nc12
- IC50 [16]: 14 nM
- IC50 [10]: 41 nM
- IC50 [17]: 1 nM

Structure (SMILES): FC(F)(F)c1cnc(N[C@H]2CCCNC2)nc1-c1n[nH]c2ccccc12
- IC50 [18]: 20 to 200 nM
- IC50 [19]: > 200 nM
- IC50 [20]: < 20 nM

Structure (SMILES): CC(C)c1cnn2c(NCc3ccccc3)cc(NC[C@H]3CCCC[C@@H]3O)nc12
- IC50 [16]: 687 nM

Structure (SMILES): CC(C)c1cnn2c(NCc3ccccc3)cc(NC[C@]3(O)CCNC[C@H]3O)nc12 (racemic)
- IC50 [17]: 2030 nM

Structure (SMILES): C=CC(=O)Nc1ccc(C(=O)Nc2n[nH]c3c2CN(C(=O)N[C@H](CN(C)C)c2ccccc2)C3(C)C)cc1
- IC50 [3]: > 100 nM

Structure (SMILES): CC(C)c1cnn2c(NCc3ccccc3-n3cccn3)nc(OC3CCCNC3)nc12 (stereo unspecified)
- IC50 [12]: 53 nM
- IC50 [13]: > 10000 nM
- IC50 [14]: > 10000 nM
- IC50 [1]: 6.4 nM
- IC50 [2]: 1710 nM
- IC50 [3]: 0.13 nM

Structure (SMILES): CC(C)c1cnn2c(NCc3cccc4[nH]ncc34)nc(OC3CCCNC3)nc12 (stereo unspecified)
- IC50 [1]: < 50 nM
- IC50 [2]: < 50 nM
- IC50 [3]: < 5 nM

Structure (SMILES): CN(C)C/C=C/C(=O)Nc1cccc(C(=O)Nc2cccc(Nc3ncc(Cl)c(-c4c[nH]c5ccccc45)n3)c2)c1
- IC50 [12]: 13.9 nM
- IC50 [21]: 222 nM
- IC50 [22]: 740 nM
- IC50 [23]: 190 nM
- IC50 [1]: 96.9 nM
- inhibition in vivo at 10 mg/kg [24]: 50%
- IC50 [2]: 134 nM
- IC50 [3]: 27 nM

Structure (SMILES): Clc1cnc(NC2CCCCC2)nc1-c1c[nH]c2cccnc12
- IC50 [18]: 20 to 200 nM
- IC50 [20]: 20 nM

Structure (SMILES): C=CC(=O)Nc1ccc(C(=O)Nc2ccc(Nc3n[nH]c4c3CN(C(=O)N[C@H](CN(C)C)c3ccccc3)C4(C)C)cc2)cc1
- IC50 [3]: < 100 nM
